Read-outs that look alike come from different tables or passages of the source.
Key:
[1] = target: T1, protein-protein interaction between SOS1 and KRAS-G12D (Homo sapiens, UniProt Q07889); assay: HTRF Based Protein-Protein Interaction Assay; assay type: binding
T1 construct: The purified GST-SOS1 catalytic domain (residues 564-1049) was first diluted in assay buffer; made in house; host or cells: E. coli BL21 (DE3) for SOS1; E. coli BL21 carrying a BirA plasmid for KRAS-G12D
T1 sequence (Q07889 564-1049): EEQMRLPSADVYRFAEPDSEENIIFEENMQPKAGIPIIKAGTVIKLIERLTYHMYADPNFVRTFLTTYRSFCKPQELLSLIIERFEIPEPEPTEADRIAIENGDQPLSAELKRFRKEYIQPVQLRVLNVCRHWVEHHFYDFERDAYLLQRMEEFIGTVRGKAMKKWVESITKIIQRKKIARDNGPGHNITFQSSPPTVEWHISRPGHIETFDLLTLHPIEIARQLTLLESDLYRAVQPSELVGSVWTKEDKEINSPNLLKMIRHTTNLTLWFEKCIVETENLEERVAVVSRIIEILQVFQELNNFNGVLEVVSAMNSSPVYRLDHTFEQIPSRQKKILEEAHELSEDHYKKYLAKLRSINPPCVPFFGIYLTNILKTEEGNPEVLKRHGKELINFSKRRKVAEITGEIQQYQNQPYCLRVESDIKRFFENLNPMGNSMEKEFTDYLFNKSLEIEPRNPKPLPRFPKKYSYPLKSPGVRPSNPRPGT
Excerpt: A KRAS-G12D and SOS1 binding/interaction assay was designed to measure the interaction between KRAS-G12D and SOS1 proteins. Utilizing HTRF (Homogeneous Time-Resolved Fluorescence) technology, the assay enabled simple and rapid characterization of compound and protein interaction in a high throughput format. This assay was used to examine potency of the compounds in inhibiting the protein-protein interaction between SOS1 and KRAS-G12D. […] Low IC50 values are indicative of high potency of the SOS1 inhibitor compound to disrupt SOS1 and Kras-G12D interaction.
Protein Expression and Purification. The corresponding gene sequence to human SOS1 (residues 564-1049, UniProt ID: Q07889; SEQ ID NO: 2) was synthesized and fused in frame with GST expression vector. After the desired sequence was confirmed, plasmid containing the sequence was transformed into the E. coli strain BL21 (DE3). Bacteria were growing at 37° C. in LB media containing 50 μg/ml Kanamycin to give OD600 of 0.6-0.8. Then 0.2 mM IPTG was added to induce protein expression for 16 hours at 17° C. Bacteria were harvested by centrifugation and stored at −80° C. Bacteria pellets were resuspended in lysis buffer (25 mM Tris-HCl, 500 mM NaCl, 2 mM DTT, 2.3% sucrose, 0.3% dextran-10, 1 mM PMSF, pH 7.5) and lysed using high-pressure homogenizer. The lysate was cleared by centrifugation for 30 minutes (12000 rpm at 4° C.). The supernatant containing GST-SOS1 fragment was purified sequentially through Glutathione column and gel filtration (Hiload 16/600 Superdex […] column, Cytiva). The purified GST-SOS1 fragment was confirmed by SDS-PAGE and stored in 25 mM Tris-HCl, 100 mM NaCl, 1 mM DTT, 2.3% sucrose, 0.3% dextran-10, pH 7.5 at −80° C.
Kras-G12D Protein Purification. The sequence corresponding to human KRAS-G12D (residues 1-169, UniProt P01116-2; SEQ ID NO: 1) was synthesized and fused in frame with His-AVI-TEV vector. The plasmid was transformed into the E. coli strain BL21 (containing a plasmid that can generate BirA enzyme). Bacteria were growing at 37° C. in TB media containing 100 μg/ml ampicillin and 50 μg/ml Kanamycin to give OD600 of 0.6-0.8. The 0.5 mM IPTG and 50 mg/l biotin were added to induce protein expression for 16 hours at 25° C. Bacteria were harvested by centrifugation and stored at −80° C. Bacteria pellets were re-suspended in lysis buffer (20 mM Tris-HCl, 500 mM NaCl, 5 mM MgCl2, 2 mM […], 5% glycerol, pH 8.0) and lysed using high-pressure homogenizer. The lysate was cleared by centrifugation for 30 minutes (12000 rpm at 4° C.). The supernatant containing HIS-AVI-TEV-KRAS-G12D fragment was purified sequentially through Ni-NTA column (SMART), Streptactin column (SMART), and gel filtration (Hiload 16/600 Superdex 75 pg, GE). The purified HIS-AVI-TEV-KRAS-G12D fragment was confirmed by SDS-PAGE and stored in 50 mM HEPES-NaOH, 100 mM NaCl, 1 mM DTT, 5 mM MgCl2, pH 7.5 at −80° C.
Protein-Protein Interaction Assay. An assay buffer containing 50 mM HEPES, pH 7.5, 50 mM NaCl, 0.01% Brij-35, 1 mM TCEP, 0.1% BSA was prepared, and concentration series of test compounds were generated spanning from 0.5 nM to 10 μM over 10 3-fold serial dilutions in a 384-well assay plate at a volume of 20 pL. The purified GST-SOS1 catalytic domain (residues 564-1049) was first diluted in assay buffer and 5 μl of SOS1 (final concentration 2.5 nM in assay mixture) was directly dispensed into compound plates. After a spin down at 1000 RPM for 30 seconds, the SOS1/compound mixture was incubated at 25° C. for 15 minutes to allow the reaction between SOS1 and the compound. A KRAS-G12D mixture was prepared by incubation of avi-tagged Kras-G12D (residue 1-169) and GDP in assay buffer containing 10 mM MgCl2 at room temperature for 10 minutes. A KRAS-G12D and GDP mixture (5 μL) was added to the assay plate (final KRAS-G12D was 100 nM and GDP was 10 uM). The plate was centrifuged at 1000 rpm for 30 sec and incubated at 25° C. for 60 minutes. […]

[2] = test system: cellular pERK in NCI-H1975 cells (EGFR/L858R-T790M); assay: pERK Potency Assay; assay type: cell-based; settings: Homo sapiens, 1 hour incubation, Western blot, read-out: IC50 value, cellular pERK level
Excerpt: The purpose of this assay is to measure the ability of test compounds to inhibit SOS1 function in cells. SOS1 activates RAS proteins by catalyzing the conversion of RAS-GDP to RAS-GTP in response to receptor tyrosine kinase activation. Activation of RAS induces a sequence of cellular signaling events that results in increased phosphorylation of ERK at Threonine 202 and Tyrosine 204 (pERK). The procedure described below measured the level of cellular pERK in response to test compounds in NCI-H1975 cells (EGFR/L858R-T790M).
NCI-H1975 cells were grown and maintained using media and procedures recommended by the ATCC. On the day prior to compound addition, cells were plated in 24-well cell culture plates (0.9 ml/well) and grown overnight in a 37° C., 5% CO2 incubator. Test compounds were prepared with 3-fold serial dilutions in DMSO, with a top concentration of 10 mM. On the day of the assay, 100 uL of each test compound diluted at 1:100 in media was added to each well of cell culture plate with final concentrations of the compound spanning 0.5 nM to 10 uM. After the compound was added, the cells were incubated for 1 hour at 37° C., 5% CO2. Following incubation, culture medium was removed, and the cells were washed once with phosphate buffered saline and lysed with lysis buffer (20 mM Tris-HCl, pH 7.5, 150 mM NaCl, 1 mM EDTA, 1 mM EGTA, 0.8% NP-40 plus 2× protease and phosphatase inhibitors). Cellular pERK level was determined using the Western blot analysis and quantified with Liqor software. Signal from Western blot was plotted and IC50 values were determined by fitting a 4-parameter sigmoidal concentration response model.

[3] = HTRF, GST-SOS1 2.5 nM, KRAS-G12D 100 nM, GDP 10 uM, read-out: IC50 value, inhibition of SOS1/KRAS-G12D protein-protein interaction

SMILES | IC50 [1, 3] | IC50 [2] | IC50 [1]
C#C[C@@H](Nc1nc(C)nc2cc(=O)n(C3(C(F)F)CC3)cc12)c1cccc(C(F)F)c1C [Compound 1, (R)-4-((1-(3-(difluoromethyl)-2-methylphenyl)prop-2-yn-1-yl)amino)-6-(1-(difluoromethyl)cyclopropyl)-2-methylpyrido[4,3-d]pyrimidin-7(6H)-one] | < 100 nM | 100 to 500 nM | 
C#C[C@@H](Nc1ncnc2c1cc(C1(NC(C)=O)CC3CCC(C1)O3)c(=O)n2C)c1cccc(C(F)F)c1F (stereo partly drawn) [Compound 61, N-(3(4-(((R)-1-3-(difluoromethyl)-2-fluorophenyl)prop-2-yn-1-yl)amino-8-methyl-7-oxo-7,8-dihydorpyrido[2,3-d]pyrimidin-6-yl)-8-oxabicyclo[3.2.1]octan-3-yl)acetamide] |  | 100 to 500 nM | 
C#C[C@@H](Nc1ncnc2c1cc(C1=CC3CCC(C1)N3C(C)=O)c(=O)n2C)c1cccc(C(F)F)c1F (some centres unmarked) [Compound 65] |  | < 100 nM | < 100 nM
C#C[C@@H](Nc1ncnc2c1cc(C1=CC3CCC(C1)O3)c(=O)n2C)c1cccc(C(F)F)c1F (some centres unmarked) [Compound 62] |  | 100 to 500 nM | 
[2H]C([2H])([2H])n1c(=O)c(C2=CCN(C(C)=O)CC2)cc2c(N[C@H](C#C)c3cccc(C(F)(F)F)c3C)nc(C)nc21 [Compound 52, 6-(1-acetyl-1,2,3,6-tetrahydropyridin-4-yl)-8-(^2H3)methyl-2-methyl-4-{[(1R)-1-[2-methyl-3-(trifluoromethyl)phenyl]prop-2-yn-1-yl]amino}-7H,8H-pyrido[2,3-d]pyrimidin-7-one] |  | 100 to 500 nM | 
C#C[C@@H](Nc1nc(C)nc2cc(=O)n(C3(C(F)F)CC3)cc12)c1cccc(C(F)F)c1F [Compound 24, (R)-4-((1-(3-(difluoromethyl)-2-fluorophenyl)prop-2-yn-1-yl)amino)-6-(1-(difluoromethyl)cyclopropyl)-2-methylpyrido[4,3-d]pyrimidin-7(6H)-one] | < 100 nM | 100 to 500 nM | 
C#C[C@@H](Nc1ncnc2c1cc(C1(NC(C)=O)CC3CCC(C1)N3C(C)=O)c(=O)n2C)c1cccc(C(F)F)c1F (some centres unmarked) [Compound 64] |  | 100 to 500 nM | 
C#C[C@@H](Nc1ncnc2c1cc(C1(O)CC3CCC(C1)N3C(C)=O)c(=O)n2C)c1cccc(C(F)F)c1F (some centres unmarked) [Compound 63] |  | 100 to 500 nM | 
C#C[C@@H](Nc1ncnc2c1cc(C1(N)CCOCC1)c(=O)n2C)c1cccc(C(F)(F)F)c1C [Compound 60] |  | < 100 nM | 

Continued, in another order:

IC50 [1, 3] | IC50 [2] | SMILES | IC50 [1]
100 to 200 nM | < 100 nM | C#C[C@@H](Nc1ncnc2c1cc(C1(F)CCN(C(C)=O)C1)c(=O)n2C)c1cccc(C(F)F)c1F (stereo partly drawn) [Compound 45, 6-(1-acetyl-3-fluoropyrrolidin-3-yl)-4-{[(1R)-1-[3-(difluoromethyl)-2-fluorophenyl]prop-2-yn-1-yl]amino}-8-methyl-7H,8H-pyrido[2,3-d]pyrimidin-7-one] | 
100 to 200 nM | < 100 nM | [2H]C([2H])([2H])n1c(=O)c(C2(F)CCN(C(C)=O)CC2)cc2c(N[C@H](C#C)c3cccc(C(F)(F)F)c3C)nc(C)nc21 [Compound 53] | 
100 to 200 nM | < 100 nM | [2H]C([2H])([2H])n1c(=O)c(C2(OC)CCN(C(C)=O)CC2)cc2c(N[C@H](C#C)c3cccc(C(F)(F)F)c3C)nc(C)nc21 [Compound 50, 6-(1-acetyl-4-methoxypiperidin-4-yl)-8-(^2H3)methyl-2-methyl-4-{[(1R)-1-[2-methyl-3-(trifluoromethyl)phenyl]prop-2-yn-1-yl]amino}-7H,8H-pyrido[2,3-d]pyrimidin-7-one] | 
100 to 200 nM | < 100 nM | [2H]C([2H])([2H])n1c(=O)c(C2(O)CCN(C(C)=O)CC2)cc2c(N[C@H](C#C)c3cccc(C(F)(F)F)c3C)nc(C)nc21 [Compound 51, 6-(1-acetyl-4-hydroxypiperidin-4-yl)-8-(^2H3)methyl-2-methyl-4-{[(1R)-1-[2-methyl-3-(trifluoromethyl)phenyl]prop-2-yn-1-yl]amino}-7H,8H-pyrido[2,3-d]pyrimidin-7-one] | 
